A word on the Kd: it is the equilibrium constant for the complex coming apart. By IC50 is commonly meant the point on the concentration scale where inhibition reaches its midpoint. A lower IC50 goes with higher potency.

Data on 15 molecules can be found in patent publication EP3057951B1, “METHYLENE LINKED QUINOLINYL MODULATORS OF ROR-GAMMA-T” (Janssen Pharmaceutica NV, priority 2013, dated 2015).

Assay [1] deals with T1, wild type human RORγt ligand binding domain (RORyt LBD) (Homo sapiens, UniProt P51449).
T1 construct: His-tag (N); TurboTEV protease cleavage site (ENLYFQG) (N); made in house; host or cells: E. coli (pHIS1, modified pET vector)
T1 sequence (P51449 258-518): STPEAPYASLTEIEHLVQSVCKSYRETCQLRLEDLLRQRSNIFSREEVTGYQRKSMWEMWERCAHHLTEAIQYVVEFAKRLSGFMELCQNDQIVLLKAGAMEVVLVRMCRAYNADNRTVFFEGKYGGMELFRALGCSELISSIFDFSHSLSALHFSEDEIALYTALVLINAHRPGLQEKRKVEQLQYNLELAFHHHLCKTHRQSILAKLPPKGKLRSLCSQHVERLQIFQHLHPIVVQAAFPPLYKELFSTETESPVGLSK
In words: RORγt ThermoFluor assay (thermal shift, binding affinity KD).

Assay [2] concerns the target T2, wild type human RORγt LBD (Homo sapiens, UniProt P51449).
T2 construct: expressed in transfected cells; host or cells: HEK293T
T2 sequence (P51449 258-518): T1 sequence (P51449 258-518)
The experiment in a line: RORγt (LBD) Reporter Assay (GAL4-luciferase, HEK293T cells). The format is cell-based. The following applies: for RORγt (LBD) Reporter Assay, % inhibition @ 6 µM: 6 µM compound concentration; for IC50: HEK293T cells, value after the comma with ∼, > or < could not be included in the average; for inhibition at 6 µM: HEK-293T, read-out: RORγt (LBD) Reporter Assay, % inhibition @ 6 µM, 6 µM compound concentration.

With `Cn1cncc1C(O)(c1ccc(C(F)(F)F)nc1)c1ccc2nc(C#N)c(Cc3ccc(F)cc3)c(C#N)c2c1` (single isomer, unassigned) [Example 53c, 3-(4-Fluorobenzyl)-6-(hydroxy(1-methyl-1H-imidazol-5-yl)(6-(trifluoromethyl)pyridin-3-yl)methyl)quinoline-2,4-dicarbonitrile], in assay [1], the Kd was found to be 48 nM. Besides, in assay [2], the “RORγt (LBD) Reporter Assay, % inhibition @ 6 µM” value (shortened to “RORγt … % inhibition @ 6 µM”) was found to be 74% and the IC50 is 680 nM.

For the molecule `COc1nc2ccc(C(O)(c3ccc(Cl)cc3)c3cncn3C)cc2c(C#N)c1Cc1ccc(C(F)(F)F)cc1` (single isomer, unassigned) [Example 55b, 6-((4-Chlorophenyl)(hydroxy)(1-methyl-1H-imidazol-5-yl)methyl)-2-methoxy-3-(4-(trifluoromethyl)benzyl)quinoline-4-carbonitrile], the Kd in assay [1] was found to be 530 nM. In addition, in assay [2], the IC50 was found to be 500 nM and the inhibition at 6 µM was 96%.

With `COc1nc2ccc(C(O)(c3ccc(Cl)cc3)c3cncn3C)cc2c(C#N)c1Cc1ccc(C(F)(F)F)cc1` (single isomer, unassigned) [Example 55c, 6-((4-Chlorophenyl)(hydroxy)(1-methyl-1H-imidazol-5-yl)methyl)-2-methoxy-3-(4-(trifluoromethyl)benzyl)quinoline-4-carbonitrile], in assay [1], the Kd worked out at 4.5 nM. Moreover, in assay [2], the “RORγt … % inhibition @ 6 µM” value amounted to 100% and it took 93 nM to reach half-maximal inhibition (IC50).

Regarding `COc1nc2ccc(C(O)(c3cnnn3C)c3cnc(C)n3C)cc2c(C#N)c1Cc1ccc(F)cc1` (single isomer, unassigned) [Example 66b, 6-((1,2-Dimethyl-1H-imidazol-5-yl)(hydroxy)(1-methyl-1H-1,2,3-triazol-5-yl)methyl)-3-(4-fluorobenzyl)-2-methoxyquinoline4-carbonitrile], the Kd in assay [1] was found to be 1.1 nM. Further, in assay [2], the IC50 was determined as 3.1 nM and the inhibition at 6 µM was determined as 82%.

For the molecule `COc1nc2ccc(C(O)(c3cnnn3C)c3cnc(C)n3C)cc2c(C#N)c1Cc1ccc(F)cc1` (single isomer, unassigned) [Example 66c, 6-((1,2-Dimethyl-1H-imidazol-5-yl)(hydroxy)(1-methyl-1H-1,2,3-triazol-5-yl)methyl)-3-(4-fluorobenzyl)-2-methoxyquinoline4-carbonitrile], the dissociation constant Kd in assay [1] was 2.2 nM. Moreover, in assay [2], the “RORγt … % inhibition @ 6 µM” value was 90% and the IC50 was found to be 2.6 nM.

As for `COc1nc2ccc(C(O)(c3ccccc3)C3CCN(C(C)=O)CC3)cc2c(Cl)c1Cc1ccc(C(F)(F)F)cc1` (single isomer, unassigned) [Example 69b, 1-(4-((4-Chloro-2-methoxy-3-(4-(trifluoromethyl)benzyl)quinolin-6-yl)(hydroxy)(phenyl)methyl)piperidin-1-yl)ethanone], the Kd in assay [1] stood at 1.8 nM. For the same molecule, in assay [2], the IC50 is 36 nM and the inhibition at 6 µM stood at 100%.

With `COc1nc2ccc(C(O)(c3ccccc3)C3CCN(C(C)=O)CC3)cc2c(Cl)c1Cc1ccc(C(F)(F)F)cc1` (single isomer, unassigned) [Example 69c, 1-(4-((4-Chloro-2-methoxy-3-(4-(trifluoromethyl)benzyl)quinolin-6-yl)(hydroxy)(phenyl)methyl)piperidin-1-yl)ethanone], the Kd in assay [1] turned out to be 35 nM. Moreover, in assay [2], the “RORγt … % inhibition @ 6 µM” value amounted to 99% and half-maximal inhibition (IC50) required 69 nM.

For the molecule `COc1nc2ccc(C(N)(c3ccc(C(F)(F)F)nc3)c3cncn3C)cc2c(Cl)c1Cc1cc2ccccc2s1` (single isomer, unassigned) [Example 71b, (3-(Benzo[b]thiophen-2-ylmethyl)-4-chloro-2-methoxyquinolin-6-yl)(1-methyl-1H-imidazol-5-yl)(6-(trifluoromethyl)pyridin-3-yl)methanamine], the Kd in assay [1] was determined as 32 nM. Also, in assay [2], the midpoint of inhibition, the IC50, lay at 230 nM and the inhibition at 6 µM amounted to 96%.

For the molecule `COc1nc2ccc(C(N)(c3ccc(C(F)(F)F)nc3)c3cncn3C)cc2c(Cl)c1Cc1cc2ccccc2s1` (single isomer, unassigned) [Example 71c, (3-(Benzo[b]thiophen-2-ylmethyl)-4-chloro-2-methoxyquinolin-6-yl)(1-methyl-1H-imidazol-5-yl)(6-(trifluoromethyl)pyridin-3-yl)methanamine], the Kd in assay [1] was 270 nM. In addition, in assay [2], the “RORγt … % inhibition @ 6 µM” value was determined as 94% and half-maximal inhibition (IC50) was put at 830 nM.

`CC(=O)N1CCC(C(O)(c2ccccc2)c2ccc3nc(Cl)c(Cc4cncnc4)c(OC(F)F)c3c2)CC1` (single isomer, unassigned) [Example 73b, 1-(4-((2-Chloro-4-(difluoromethoxy)-3-(pyrimidin-5-ylmethyl)quinolin-6-yl)(hydroxy)(phenyl)methyl)piperidin-1-yl)ethanone]: the Kd in assay [1] amounted to 44 nM. Further, in assay [2], inhibition was half-maximal at 700 nM (IC50) and the inhibition at 6 µM amounted to 35%.

`CC(=O)N1CCC(C(O)(c2ccccc2)c2ccc3nc(Cl)c(Cc4cncnc4)c(OC(F)F)c3c2)CC1` (single isomer, unassigned) [Example 73c, 1-(4-((2-Chloro-4-(difluoromethoxy)-3-(pyrimidin-5-ylmethyl)quinolin-6-yl)(hydroxy)(phenyl)methyl)piperidin-1-yl)ethanone]: the Kd in assay [1] was 480 nM. Moreover, in assay [2], the “RORγt … % inhibition @ 6 µM” value came to 21% and the half-maximal inhibitory concentration (IC50) is above 6000 nM.

`COc1nc2ccc(C(O)(c3cnnn3C)C3CCN(C(C)=O)CC3)cc2c(Cl)c1Cc1ccc(C(F)(F)F)cc1` (single isomer, unassigned) [Example 74b, 1-(4-((4-Chloro-2-methoxy-3-(4-(trifluoromethyl)benzyl)quinolin-6-yl)(hydroxy)(1-methyl-1H-1,2,3-triazol-5-yl)methyl)piperidin-1-yl)ethanone]: the Kd in assay [1] is 5 nM. Further, in assay [2], the IC50 was 15 nM and the inhibition at 6 µM turned out to be 102%.

`COc1nc2ccc(C(O)(c3cnnn3C)C3CCN(C(C)=O)CC3)cc2c(Cl)c1Cc1ccc(C(F)(F)F)cc1` (single isomer, unassigned) [Example 74c, 1-(4-((4-Chloro-2-methoxy-3-(4-(trifluoromethyl)benzyl)quinolin-6-yl)(hydroxy)(1-methyl-1H-1,2,3-triazol-5-yl)methyl)piperidin-1-yl)ethanone]: in assay [1], the Kd turned out to be 7.7 nM. Moreover, in assay [2], the “RORγt … % inhibition @ 6 µM” value came out at 101% and the IC50 was found to be 20 nM.

Take `CC(=O)N1CCC(C(O)(c2ccc(C(F)(F)F)nc2)c2cc(C)c3nc(C#N)c(Cc4ccc(-n5cccn5)cc4)c(C#N)c3c2)CC1` (single isomer, unassigned) [Example 79b, 3-(4-(1H-Pyrazol-1-yl)benzyl)-6-((1-acetylpiperidin-4-yl)(hydroxy)(6(trifluoromethyl)pyridin-3-yl)methyl)-8-methylquinoline-2,4-dicarbonitrile]: in assay [1], the Kd is 580 nM. In assay [2], the midpoint of inhibition, the IC50, lay at 760 nM and the inhibition at 6 µM is 92%.

For `CC(=O)N1CCC(C(O)(c2ccc(C(F)(F)F)nc2)c2cc(C)c3nc(C#N)c(Cc4ccc(-n5cccn5)cc4)c(C#N)c3c2)CC1` (single isomer, unassigned) [Example 79c, 3-(4-(1H-Pyrazol-1-yl)benzyl)-6-((1-acetylpiperidin-4-yl)(hydroxy)(6(trifluoromethyl)pyridin-3-yl)methyl)-8-methylquinoline-2,4-dicarbonitrile], the Kd in assay [1] stood at 45 nM. Also, in assay [2], the “RORγt … % inhibition @ 6 µM” value came out at 103% and half-maximal inhibition (IC50) required 230 nM.
